Values of other authors in PubChem BioAssay AID1259409 (Chemical Carcinogenesis Research Information System (CCRIS), 2018).
Several values for one entry are separate records, joined by “and”; a condition that tells them apart may be missing. Equal entries are not always repeated.

Tested on: rodent chemically induced tumor inhibition, incidence and multiplicity
Test: CCRIS tumor inhibitor studies

Question: Which “tumour outcome (control, treated, inhibition, significance)” value (Carcinogen: 4-NITROQUINOLINE-1-OXIDE, 56-57-5, Dose [Inhibitor]: 0, 250 PPM IN DIET FOR 7 WK BEGINNING 1 WK PRIOR TO START OF CARCINOGEN TREATMENT (STUDY DURATION: 32 WK), Route [Inhibitor]: ORAL, Species: RAT, Strain/Sex: F344/MALE, Target Tissue: Type of Lesion: TONGUE: PAPILLOMA, Dose [Carcinogen]: 20 PPM IN DRINKING WATER FOR 5 WK, Promoter: NONE USED) does the source give for O=C(/C=C/c1ccc(O)c(O)c1)O[C@@H]1C[C@](O)(C(=O)O)C[C@@H](O)[C@H]1O here?
Answer: 1/15 (7%), 1/15 (7%), 0%, not significant

Question: What about the “tumour outcome (control, treated, inhibition, significance)” value (Carcinogen: 7,12-DIMETHYLBENZ[A]ANTHRACENE, 57-97-6, Dose [Inhibitor]: 10 UMOL IN 200 µL ACETONE/DMSO (90:10) 2/WK FOR 19 WK BEGINNING 1 WK POST CARCINOGEN DOSE (STUDY DURATION: 20 WK), Route [Inhibitor]: DERMAL, Species: MOUSE, Strain/Sex: CD-1/FEMALE, Target Tissue: Type of Lesion: SKIN: PAPILLOMA, Dose [Carcinogen]: 200 NMOL IN 200 µL ACETONE ONCE, Promoter: 12-O-TETRADECANOYLPHORBOL-13-ACETATE, 16561-29-8) of the same compound?
Answer: 68%, 47%, 31%, not calculated

Question: And the “tumour outcome (control, treated, inhibition, significance)” value (Carcinogen: 7,12-DIMETHYLBENZ[A]ANTHRACENE, 57-97-6, Dose [Inhibitor]: 20 UMOL IN 200 µL ACETONE/DMSO (90:10) 2/WK FOR 19 WK BEGINNING 1 WK POST CARCINOGEN DOSE (STUDY DURATION: 20 WK), Route [Inhibitor]: DERMAL, Species: MOUSE, Strain/Sex: CD-1/FEMALE, Target Tissue: Type of Lesion: SKIN: PAPILLOMA, Dose [Carcinogen]: 200 NMOL IN 200 µL ACETONE ONCE, Promoter: 12-O-TETRADECANOYLPHORBOL-13-ACETATE, 16561-29-8)?
Answer: 68%, 27%, 60%, not calculated

Question: What about the “tumour outcome (control, treated, inhibition, significance)” value (Carcinogen: N-METHYL-N-NITROSOUREA [684-93-5], Dose [Inhibitor]: 250 PPM IN DIET FOR 22 WK BEGINNING 1 WK POST LAST CARCINOGEN DOSE (STUDY DURATION: 35 WK), Route [Inhibitor]: ORAL, Species: RAT, Strain/Sex: F344/MALE, Target Tissue: Type of Lesion: GLANDULAR STOMACH: ADENOCARCINOMA, Dose [Carcinogen]: 400 PPM IN DRINKING WATER FOR 12 WK (STUDY DURATION: 35 WK), Promoter: NONE) of the same compound?
Answer: 12/20 (60.0%), 4/17 (23.5%), 61%, p<0.03

Question: What about the “tumour outcome (control, treated, inhibition, significance)” value (Carcinogen: N-METHYL-N-NITROSOUREA [684-93-5], Dose [Inhibitor]: 500 PPM IN DIET FOR 22 WK BEGINNING 1 WK POST LAST CARCINOGEN DOSE (STUDY DURATION: 35 WK), Route [Inhibitor]: ORAL, Species: RAT, Strain/Sex: F344/MALE, Target Tissue: Type of Lesion: GLANDULAR STOMACH: ADENOCARCINOMA, Dose [Carcinogen]: 400 PPM IN DRINKING WATER FOR 12 WK (STUDY DURATION: 35 WK), Promoter: NONE) of the same compound?
Answer: 12/20 (60.0%), 7/21 (33.3%), 45%, not significant

Question: What about the “tumour outcome (control, treated, inhibition, significance)” value (Carcinogen: N-NITROQUINOLINE-1-OXIDE, 56-57-5, Dose [Inhibitor]: 0, 250 PPM IN DIET FOR 7 WK BEGINNING 1 WK PRIOR TO START OF CARCINOGEN TREATMENT (STUDY DURATION: 32 WK), Route [Inhibitor]: ORAL, Species: RAT, Strain/Sex: F344\MALE, Target Tissue: Type of Lesion: TONGUE: CARCINOMA, Dose [Carcinogen]: 20 PPM IN DRINKING WATER FOR 5 WK, Promoter: NONE USED) of the same compound?
Answer: 9/15 (60%), 1/15 (7%), 88%, p=0.0025

Question: With COc1ccc(O)cc1C(C)(C)C as the compound, how does the “tumour outcome (control, treated, inhibition, significance)” value (Carcinogen: BENZO[A]PYRENE, 50-32-8, Dose [Inhibitor]: 0.03 MMOL/G OF DIET DAILY STARTING 7 D BEFORE AND CONTINUING THROUGH 3 D AFTER CARCINOGEN TREATMENT FOLLOWED BY OBSERVAT, Route [Inhibitor]: ORAL, Species: MOUSE, Strain/Sex: ICR/FEMALE, Target Tissue: Type of Lesion: FORESTOMACH: NEOPLASM, Dose [Carcinogen]: 1 MG IN 0.2 ML CORN OIL 2/WK FOR 4 WK, Promoter: NONE USED) read?
Answer: 94%, 60%, 36%, p<0.05 and 90%, 65%, 28%, not significant

Question: And the “tumour outcome (control, treated, inhibition, significance)” value (Carcinogen: CIPROFIBRATE, 52214-84-3, Dose [Inhibitor]: 0.5% IN DIET FOR 60 WK (STUDY DURATION: 60 WK), Route [Inhibitor]: ORAL, Species: RAT, Strain/Sex: F344/MALE, Target Tissue: Type of Lesion: LIVER: TUMOR, Dose [Carcinogen]: 10 MG/KG/BW IN DIET SIMULTANEOUSLY WITH INHIBITOR FOR 60 WK, Promoter: NONE USED)?
Answer: 22/25 (88%), 12/25 (48%), 45%, p<0.005

Question: Which “tumour outcome (control, treated, inhibition, significance)” value (Carcinogen: 1,2-DIMETHYLHYDRAZINE, 540-73-8, Dose [Inhibitor]: 0.013 MMOL/G IN DIET BEGINNING 1 WK POST LAST CARCINOGEN DOSE (STUDY DURATION: 42 WK), Route [Inhibitor]: ORAL, Species: MOUSE, Strain/Sex: CF-1/FEMALE, Target Tissue: Type of Lesion: LARGE BOWEL: ADENOCARCINOMA, Dose [Carcinogen]: 0.6 MG IN 0.2 ML EDTA SOLUTION (PH 6.5) 2X WK FOR 8 WKS., Promoter: NONE USED) does the source give for N#CO here?
Answer: 20%, 0%, 100%, p<0.05

Question: And the “tumour outcome (control, treated, inhibition, significance)” value (Carcinogen: 1,2-DIMETHYLHYDRAZINE, 540-73-8, Dose [Inhibitor]: 0.013 MMOL/G IN DIET BEGINNING 1 WK POST LAST CARCINOGEN DOSE (STUDY DURATION: 42 WK), Route [Inhibitor]: ORAL, Species: MOUSE, Strain/Sex: CF-1/FEMALE, Target Tissue: Type of Lesion: LARGE BOWEL: ADENOMA, Dose [Carcinogen]: 0.6 MG IN 0.2 ML EDTA SOLUTION (PH 6.5) 2/WK FOR 8 WK, Promoter: NONE USED)?
Answer: 41%, 18%, 56%, not significant

Question: And the “tumour outcome (control, treated, inhibition, significance)” value (Carcinogen: 1,2-DIMETHYLHYDRAZINE, 540-73-8, Dose [Inhibitor]: 0.026 MMOL/G IN DIET BEGINNING 1 WK POSE LAST CARCINOGEN DOSE (STUDY DURATION: 42 WK), Route [Inhibitor]: ORAL, Species: MOUSE, Strain/Sex: CF-1/FEMALE, Target Tissue: Type of Lesion: LARGE BOWEL: ADENOMA, Dose [Carcinogen]: 0.6 MG IN 0.2 ML EDTA SOLUTION (PH 6.5) 2/WK FOR 8 WK, Promoter: NONE USED)?
Answer: 41%, 17%, 58%, not significant

Question: And the “tumour outcome (control, treated, inhibition, significance)” value (Carcinogen: 1,2-DIMETHYLHYDRAZINE, 540-73-8, Dose [Inhibitor]: 0.026 MMOL/G IN DIET BEGINNING 1 WK POST LAST CARCINOGEN DOSE (STUDY DURATION: 42 WK), Route [Inhibitor]: ORAL, Species: MOUSE, Strain/Sex: CF-1/FEMALE, Target Tissue: Type of Lesion: LARGE BOWEL: ADENOCARCINOMA, Dose [Carcinogen]: 0.6 MG IN 0.2 ML EDTA SOLUTION (PH 6.5) 2/WK FOR 8 WK, Promoter: NONE USED)?
Answer: 15%, 6%, 60%, not significant and 20%, 6%, 70%, not significant and 18%, 6%, 67%, not significant

Question: And the “tumour outcome (control, treated, inhibition, significance)” value (Carcinogen: 1,2-DIMETHYLHYDRAZINE, 540-73-8, Dose [Inhibitor]: 0.026 MMOL/G IN DIET BEGINNING 1 WK POST LAST CARCINOGEN DOSE (STUDY DURATION: 42 WK), Route [Inhibitor]: ORAL, Species: MOUSE, Strain/Sex: CF-1/FEMALE, Target Tissue: Type of Lesion: LARGE BOWEL: ADENOMA, Dose [Carcinogen]: 0.6 MG IN 0.2 ML EDTA SOLUTION (PH 6.5) 2/WK FOR 8 WK, Promoter: NONE USED)?
Answer: 33%, 11%, 67%, not significant and 37%, 14%, 62%, p<0.05

Question: And the “tumour outcome (control, treated, inhibition, significance)” value (Carcinogen: 7,12-DIMETHYLBENZ(A)ANTHRACENE, 57-97-6, Dose [Inhibitor]: 0.013 MMOL/G IN DIET BEGINNING 1 WK AFTER CARCINOGEN ADMINISTRATION (STUDY DURATION: 18 WK), Route [Inhibitor]: ORAL, Species: RAT, Strain/Sex: SPRAGUE-DAWLEY/FEMALE, Target Tissue: Type of Lesion: MAMMARY GLAND: TUMOR, Dose [Carcinogen]: 12 MG DMBA IN 1.0 ML OLIVE OIL ONCE, Promoter: NONE USED)?
Answer: 100%, 77%, 23%, p<0.01

Question: And the “tumour outcome (control, treated, inhibition, significance)” value (Carcinogen: 7,12-DIMETHYLBENZ(A)ANTHRACENE, 57-97-6, Dose [Inhibitor]: 0.026 MMOL/G IN DIET BEGINNING 1 WK AFTER CARCINOGEN ADMINISTRATION (STUDY DURATION: 16 WK), Route [Inhibitor]: ORAL, Species: RAT, Strain/Sex: SPRAGUE-DAWLEY/FEMALE, Target Tissue: Type of Lesion: MAMMARY GLAND: TUMOR, Dose [Carcinogen]: 12 MG DMBA IN 1.0 ML OLIVE OIL ONCE, Promoter: NONE USED)?
Answer: 100%, 60%, 40%, p<0.001

Question: What about the “tumour outcome (control, treated, inhibition, significance)” value (Carcinogen: 7,12-DIMETHYLBENZ(A)ANTHRACENE, 57-97-6, Dose [Inhibitor]: 0.026 MMOL/G IN DIET BEGINNING 1 WK AFTER CARCINOGEN ADMINISTRATION (STUDY DURATION: 18 WK), Route [Inhibitor]: ORAL, Species: RAT, Strain/Sex: SPRAGUE-DAWLEY/FEMALE, Target Tissue: Type of Lesion: MAMMARY GLAND: TUMOR, Dose [Carcinogen]: 12 MG DMBA IN 1.0 ML OLIVE OIL ONCE, Promoter: NONE USED) of the same compound?
Answer: 94%, 63%, 33%, p<0.05 and 100%, 63%, 37%, p<0.01

Question: With C=C1CC[C@H]2[C@@]3(C)CCC[C@]2(C)[C@H]1CO[C@@H](C(=O)OC)[C@H](CC(=O)O)C(=O)OC[C@]1(C)CCC[C@]2(C)[C@@H](CO[C@@H](C(=O)OC)[C@H](CC(=O)O)C(=O)OC3)C(=C)CC[C@@H]12 as the compound, how does the “tumour outcome (control, treated, inhibition, significance)” value (Carcinogen: 7,12-DIMETHYLBENZ[A]ANTHRACENE, 57-97-6, Dose [Inhibitor]: 0, 1 MG 2/WK FOR 20 WK APPLIED 10 MIN PRIOR TO EACH PROMOTER DOSE (STUDY DURATION: 20 WK), Route [Inhibitor]: DERMAL, Species: MOUSE, Strain/Sex: CD-1/FEMALE, Target Tissue: Type of Lesion: SKIN: TUMOR, Dose [Carcinogen]: 100 UG ONCE, Promoter: OKADAIC ACID, 78111-17-8) read?
Answer: 73%, 80%, -10%, not significant

Question: And the “tumour outcome (control, treated, inhibition, significance)” value (Carcinogen: 7,12-DIMETHYLBENZ[A]ANTHRACENE, 57-97-6, Dose [Inhibitor]: 0, 5 MG 2/WK FOR 20 WK APPLIED 10 MIN PRIOR TO EACH PROMOTER DOSE (STUDY DURATION: 20 WK), Route [Inhibitor]: DERMAL, Species: MOUSE, Strain/Sex: CD-1/FEMALE, Target Tissue: Type of Lesion: SKIN: TUMOR, Dose [Carcinogen]: 100 UG ONCE, Promoter: OKADAIC ACID, 78111-17-8)?
Answer: 73%, 93%, -27%, not significant
